Test results as given in patent US9988361B2, “Anti-enterovirus 71 thiadiazolidine derivative” (JIANGSU KANION PHARMACEUTICAL CO. LTD, priority 2014, dated 2018).

These molecules were tested on EV71 virus strain Shenzhen/120F1/09 (assay: EV71 in-vitro cytopathic effect (CPE) test). Details: Enterovirus A, 72 h; RD cells, EV71 100 TCID50, 3 days, CCK8 readout; read-out: EC50 by EC71 CPE test, EV71.
Assay type: cell-based, RD cells of human rhabdomyoma
Description: Test of EV71 In-Vitro Cytopathic Effect (CPE) To test the in-vitro antiviral activity and cytotoxicity of a compound to HFMD virus EV71 by means of cytopathic effect (CPE) test. […] Cell line: RD cells of human rhabdomyoma • 3. Cell culture media: DMEM medium added with 10% serum, Penicillin/Streptomycin and L-[…]×) • 4. […] Cell inoculation: digest off the RD cells from the attached state, then dilute them with culture medium to a density of 80000/ml and inoculate 100 μl into the micro wells the 96-well plate. • 2. Dilution of compound: • Step 1: prepare the dry powder of a compound to test into a 10 mM solution in DMSO. Then dilute the compound by three times to eight concentration points. Dilute the reference compounds with the same method. • Step 2: further dilute the diluted solution of the compound in DMSO with cell culture medium. Add 10 μl DMSO solution for each well into 240 μl culture medium. • 3. Add the diluted compound solution by 50 μl each well into the 96-well plate inoculated with cells (double holes, final concentration of DMSO is 1%). • 4. Dilution of virus: dilute EV71 virus solution by 10000 times to a concentration of 100 TCID50/50 μl/. Add the diluted virus solution by 50 μl each well into the 96-well plate. Prepare another 96-well plate to replace the virus with culture medium and similarly inoculate the cells. Add the compound to test the toxicity of compound on cells. • 5. Cultivate the 96-well plate 3 days at the conditions of 37° C. and 5% CO2. • 6. EC50 and CC50 tests: add the cellular activity test reagent CCK8 into the micro-wells by 20 μl/well. Use ELIASA to read the absorbancy at the wavelength of 450 nm and 630 nm. • 7.
CC(C)O/N=C/c1ccc(OCCCCCN2CCN(c3ccnc(N)c3)S2(=O)=O)cc1 [Embodiment 53, (E)-4-((5-(5-(2-amino-pyridin-4-yl)-1,1-dioxide-1,2,5-thiadiazolidine-2-yl)-pentyl)-oxy)-benzaldehyde-O-isopropyl oxime] gave an EC50 of under 50 nM.
With CCO/N=C1\CCc2cc(OCCC(F)(F)CCN3CCN(c4ccnc(N)c4)S3(=O)=O)ccc21 [Embodiment 31, (E)-2-(2-amino-pyridin-4-yl)-5-(5-((1-(ethoxy-imino)-2,3-dihydro-1H-inden-5-yl)-oxy)-3,3-difluoropentyl)-1,2,5-thiadiazolidine-1,1-dioxide] the EC50 was 100 to 500 nM.
With CCO/N=C/c1ccc2c(c1)CCC(CCCCN1CCN(c3ccncc3)S1(=O)=O)O2 (stereo not shown) [Embodiment 21, (E)-2-(4-(1,1-dioxo-5-(pyridin-4-yl)-1,2,5-thiadiazolidine-2-yl)-butyl)-chroman-6-formaldehyde-O-ethyloxime] the EC50 was under 50 nM.
With CCn1nnc(-c2ccc(OCCC3(CCN4CCN(c5ccnc(N)c5)S4(=O)=O)CC3)cc2)n1 [Embodiment 73, 2-(2-amino-pyridin-4-yl)-5-(2-(1-(2-(4-(2-ethyl-2H-tetrazol-5-yl)-phenoxy)-ethyl)-cyclic propyl)-ethyl)-1,2,5-thiadiazolidine-1,1-dioxide] the EC50 was under 50 nM.
With CCO/N=C/c1ccc(OCCOCCN2CCN(c3ccnc(N)c3)S2(=O)=O)cc1 [Embodiment 55] the EC50 was 100 to 500 nM.
CCO/N=C/c1ccc(OCCCCCN2CCN(c3ccnc(F)c3)S2(=O)=O)cc1 [Embodiment 39, (E)-4-((5-(5-(2-Fluoro-4-yl)-1,1-dioxide-1,2,5-thiadiazolidine-2-yl)-pentyl)-oxy)-benzaldehyde-O-ethyl ketoxime] showed an EC50 of 50 to 100 nM.
For CCn1ncc(-c2ccc(OCCCCCN3CCN(c4ccnc(N)c4)S3(=O)=O)cc2)n1 [Embodiment 64, 2-(2-amino-pyridin-4-yl)-5-(5-(4-(2-ethyl-2H-1,2,3-triazol-4-yl)-phenoxy)-pentyl)-1,2,5-thiadiazolidine-1,1-dioxide], the EC50 was under 50 nM.
With CCc1cc(-c2ccc(OCCCCCN3CCN(c4ccnc(N)c4)S3(=O)=O)cc2)no1 [Embodiment 67, 2-(2-amino-pyridin-4-yl)-5-(5-(4-(5-ethylisoxazole-3-yl)-phenoxy)-pentyl)-1,2,5-thiadiazolidine-1,1-dioxide] the EC50 was under 50 nM.
CCO/N=C/c1ccc(OCCCCCN2CCN(c3ccnc(NC)c3)S2(=O)=O)cc1 [Embodiment 41, (E)-4-((5-(5-(2-(methylamino)-pyridin-4-yl)-1,1-dioxide-1,2,5-thiadiazolidine-2-yl)-pentyl)-oxy)-benzaldehyde-O-ethyl ketoxime] gave an EC50 of under 50 nM.
CCc1noc2cc(OCCCCCN3CCN(c4ccnc(N)c4)S3(=O)=O)ccc12 [Embodiment 62, 2-(2-amino-pyridin-4-yl)-5-(5-((3-ethyl-benzo[d]isoxazol-6-yl)-oxy)-pentyl)-1,2,5-thiadiazolidine-1,1-dioxide] showed an EC50 of 100 to 500 nM.
CCO/N=C1\CCc2cc(OCCCCCN3CCN(c4ccnc(NC)c4)S3(=O)=O)ccc21 [Embodiment 50, (E)-2-(5-((1-(ethoxy-imino)-2,3-dihydro-1H-inden-5-yl)-oxy)-pentyl)-5-(2-(methylamino)-pyridin-4-yl)-1,2-thiadiazolidine-1,1-dioxide] was tested, and the EC50 was under 50 nM.
In the case of CCO/N=C/c1ccc(OCCCCCN2CCN(c3ccnc(NC(C)=O)c3)S2(=O)=O)cc1 [Embodiment 36, (E)-N-(4-(5-(5-(4-((ethoxy-imino)-methyl)-phenoxy)-pentyl)-1,1-dioxide-1,2,5-thiadiazolidine-2-yl)-pyridin-2-yl)-acetamide], the EC50 is reported as under 50 nM.
O=S1(=O)N(CCCCCOc2ccc(-c3ccc(Cl)cc3)cc2)CCN1c1ccncc1 [Embodiment 6, 2-(5-((4′-chloro-[1,1′-biphenyl]-4-yl)oxy)pentyl)-5-(pyridin-4-yl)-1,2,5-thiadiazolidine-1,1-dioxide] showed an EC50 of 50 to 100 nM.
In the case of CCc1nnc(-c2ccc(OCCCCCN3CCN(c4ccnc(N)c4)S3(=O)=O)cc2)o1 [Embodiment 63, 4-(5-(5-(4-(5-ethyl-1,3,4-oxadiazol-2-yl)-phenoxy)-pentyl)-1,1-dioxo-1,2,5-thiadiazolidine-2-yl)-pyridin-2-amine], the EC50 is reported as 100 to 500 nM.
CCOc1noc2cc(OCCCCCN3CCN(c4ccncc4)S3(=O)=O)ccc12 [Embodiment 12, 2-(5-((3-ethoxy-benzo[d]isoxazole-6-yl)-oxy)pentyl)-5-(pyridin-4-yl)-1,2,5-thiadiazolidine-1,1-dioxide] showed an EC50 of under 50 nM.
CCO/N=C/c1ccc(OCCCCCCN2CCN(c3ccnc(N)c3)S2(=O)=O)cc1 [Embodiment 25, (E)-4-((6-(5-(2-aminopyridin-4-yl)-1,1-dioxide-1,2,5-thiadiazolidine-2-yl)-hexyl)-oxy)-benzaldehyde-O-ethyl ketoxime] gave an EC50 of under 50 nM.
CCn1nnc(-c2ccc(OCCCCCN3CCN(c4ccnc(N)c4)S3(=O)=O)nc2)n1 [Embodiment 74, 4-(5-(5-((5-(2-ethyl-tetrazol-5-yl)-2-pyridinyl)-oxy)-pentyl)-1,1-dioxo-1,2,5-thiadiazolidine-2-yl)-pyridin-2-amine] showed an EC50 of under 50 nM.
CCn1nnc(-c2ccc(OCCCCCN3CCN(c4ccncc4)S3(=O)=O)cc2)n1 [Embodiment 11, 2-(5-(4-(2-ethyl-2H-tetrazol-5-yl)-phenoxy)pentyl)-5-(pyridin-4-yl)-1,2,5-thiadiazolidine-1,1-dioxide] gave an EC50 of 50 to 100 nM.
In the case of CCO/N=C/c1ccc(OCCCCCN2CCN(c3ccnc(C)c3)S2(=O)=O)cc1 [Embodiment 32, (E)-4-((5-(5-(2-methylpyridin-4-yl)-1,1-dioxide-1,2,5-thiadiazol-2-yl)-pentyl)-oxy)-benzaldehyde-O-ethyl ketoxime], the EC50 is reported as under 50 nM.
CCO/N=C/c1ccc(OCCC(C)CCN2CCN(c3ccncc3)S2(=O)=O)cc1 (stereo not shown) [Embodiment 14, (E)-4-((5-(1,1-dioxo-5-(pyridin-4-yl)-1,2,5-thiadiazolidine-2-yl)-3-methyl-pentyl)-oxy)-benzaldehyde-O-ethyloxime] gave an EC50 of under 50 nM.
For Nc1cc(N2CCN(CCCCCOc3ccc(-c4ccc(Cl)cc4)cc3)S2(=O)=O)ccn1 [Embodiment 16, 2-(2-aminopyridine-4-yl)-5-(5-((4′-chloro-[1,1′-biphenyl]-4-yl)-oxy)-pentyl)-1,2,5-thiadiazolidine-1,1-dioxide], the EC50 was under 50 nM.
In the case of CCO/N=C/c1ccc(OCCCCCN2CCN(c3ccnc(N4CCC4)c3)S2(=O)=O)cc1 [Embodiment 42, (E)-4-((5-(5-(2-(azetidin-1-yl)-pyridin-4-yl)-1,1-dioxide-1,2,5-thiadiazolidine-2-yl)-pentyl)-oxy)-benzaldehyde-O-ethyl ketoxime], the EC50 is reported as 100 to 500 nM.
Molecule Nc1cc(N2CCN(CCCCCOc3ccc(-c4noc(C(F)(F)F)n4)cc3)S2(=O)=O)ccn1 [Embodiment 68, 2-(2-amino-pyridin-4-yl)-5-(5-(4-(5 (trifluoromethyl)-1,2,4-oxadiazol-3-yl)-phenoxy)-pentyl)-1,2,5-thiadiazolidine-1,1-dioxide] has an EC50 of 500 to 1000 nM.
Cc1nc(-c2ccc(OCCCCCN3CCN(c4ccnc(N)c4)S3(=O)=O)cc2)no1 [Embodiment 69] showed an EC50 of under 50 nM.
Molecule O=S1(=O)N(CCOCCOc2ccc(-c3ccc(Cl)cc3)cc2)CCN1c1ccncc1 [Embodiment 13, 2-(2-(2-((4′-chloro-[1,1′-biphenyl]-4-yl)oxy)ethoxy)ethyl)-5-(pyridin-4-yl)-1,2,5-thiadiazolidine-1,1-dioxide] has an EC50 of 100 to 500 nM.
With CCn1nnc(-c2ccc(OCCCCCN3CCN(c4ccnc(N)c4)S3(=O)=O)cc2)n1 [Embodiment 27, 4-(5-(5-(4-(2-ethyl-tetrazol-5-yl)-phenoxy)-pentyl)-1,1-dioxide-1,2,5-thiadiazolidine-2-yl)-pyridin-2-amine] the EC50 was under 50 nM.
CCO/N=C/c1ccc(OCCCCCN2CCN(c3ccnc(C(=O)OC)c3)S2(=O)=O)cc1 [Embodiment 37] showed an EC50 of 500 to 1000 nM.
Work on O=S1(=O)N(CCCCC2CCc3cc(-c4ccc(Cl)cc4)ccc3O2)CCN1c1ccncc1 (stereo not shown) [Embodiment 19, 2-(4-(6-(4-chlorophenyl)-chroman-2-yl)-butyl)-5-(pyridin-4-yl)-1,2,5-thiadiazolidine-1,1-dioxide] yielded an EC50 of 100 to 500 nM.
For Nc1cc(N2CCN(CCCCCOc3ccc(/C=N/OCC4CC4)cc3)S2(=O)=O)ccn1 [Embodiment 52], the EC50 was under 50 nM.
With CCO/N=C/c1ccc(OCCC(C)CCN2CCN(c3ccnc(N)c3)S2(=O)=O)cc1 (stereo not shown) [Embodiment 17, (E)-4-((5-(5-(2-amino-pyridin-4-yl)-1,1-dioxo-1,2,5-thiadiazolidine-2-yl)-3-methyl-pentyl)-oxy)-benzaldehyde-O-ethylketoxime] the EC50 was under 50 nM.

Same assay, conditions: RD cells, EV71 100 TCID50, 3 days, CCK8 readout; read-out: EC50 by EC71 CPE test, EV71
With “(S,E)-2-(2-aminopyridin-4-yl)-5-(5-((1-(ethoxy-imino)-2,3-dihydro-1H-inden-5-yl)-oxy)-3-methylpentyl)-1,2,5-thiadiazolidine-1,1-dioxide and (R,E)-2-(2-aminopyridin-4-yl)-5-(5-((1-(ethoxy-imino)-2,3-dihydro-1H-inden-5-yl)-oxy)-3-methylpentyl)-1,2,5-thiadiazolidine-1,1-dioxide [Embodiment 29]” the EC50 was under 50 nM.
